This test addresses T1, FSH receptor (Rattus norvegicus, UniProt P20395).
T1 construct: endogenous in cells; host or cells: primary ovarian granulosa cells of DES-treated immature Sprague-Dawley rats
T1 sequence (P20395 18-692): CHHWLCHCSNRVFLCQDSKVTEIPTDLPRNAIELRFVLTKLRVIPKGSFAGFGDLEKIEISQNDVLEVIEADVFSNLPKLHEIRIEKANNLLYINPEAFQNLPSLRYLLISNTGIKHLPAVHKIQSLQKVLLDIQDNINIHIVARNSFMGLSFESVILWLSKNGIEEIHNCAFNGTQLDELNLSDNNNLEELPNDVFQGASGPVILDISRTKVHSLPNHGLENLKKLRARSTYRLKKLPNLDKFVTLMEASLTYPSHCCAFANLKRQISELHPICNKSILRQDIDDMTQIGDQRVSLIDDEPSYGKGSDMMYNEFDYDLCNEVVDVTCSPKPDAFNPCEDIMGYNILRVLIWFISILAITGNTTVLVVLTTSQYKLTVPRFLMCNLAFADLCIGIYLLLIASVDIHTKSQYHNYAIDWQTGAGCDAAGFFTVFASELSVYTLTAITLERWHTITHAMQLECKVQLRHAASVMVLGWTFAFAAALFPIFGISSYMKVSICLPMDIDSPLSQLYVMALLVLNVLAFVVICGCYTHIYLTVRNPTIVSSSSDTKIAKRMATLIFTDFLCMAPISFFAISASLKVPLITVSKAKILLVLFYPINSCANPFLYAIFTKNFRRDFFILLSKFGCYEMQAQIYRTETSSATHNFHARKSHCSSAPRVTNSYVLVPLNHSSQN
Put plainly: In Vitro Bio-test Procedure of Agonists and Antagonists to the FSH Receptor Using Primary Cultures of Rat Granulosa (estradiol secretion). In kind it is cell-based. As for the experimental part:
In Vitro Bio-test Procedure of Agonists and Antagonists to the FSH Receptor Using Primary Cultures of Rat Granulosa
Materials and Methods: Reagents
The concentration of vehicle was maintained constant throughout all dilutions.
Preparation of Granulosa Cells: Twenty-four day-old immature female Sprague-Dawley rats (Charles River Laboratories, Wilmington, Mass.) were used as donors for ovarian granulosa cells. The animals were treated by single daily injections of 100 mg/kg diethylstilbestrol (DES) in oil over three days. On the fourth day, animals were sacrificed by CO2 asphyxiation and the ovaries were removed. Ovaries were washed three times in 50 mL of sterile HEPES-buffered saline (HBS, pH 7.4). Granulosa cells were harvested by incubating ovaries in a hypertonic medium consisting of serum-free McCoy*s SA medium (Gibco Life Sciences, Grand Island, N.Y.) supplemented with […], […], 5 ng/mL sodium selenite (ITS, Sigma Chemical Co., St. Louis Mo.), […] L-glutamine, 100 nM testosterone, 100 nM DES and 100 U/mL penicillin/[…]/250 ng/mL amphotericin B (antibiotic/antimycotic, Gibco) containing 0.5 M sucrose and 0.1 mM EGTA. Ovaries were then incubated for 45 min. at 37 C. in a humidified incubator gassed with 95% air/5% CO2. They were washed 3 times with 10 mL isotonic medium (hypertonic medium without sucrose and EGTA) and incubated another 45 min. in isotonic medium at 37 C. Granulosa cells were harvested by squeezing the ovaries between two sterile glass microscope slides. Isolated granulosa cells were then placed in an 50 mL centrifuge tube and washed two times by the addition of 50 mL serum-free McCoy*s 5A medium followed by centrifugation at 700×g for 5 min. After the final spin, the cells were resuspended by gentle trituration in 25 mL serum-free medium, an aliquot counted in a hemocytometer and viability estimated by trypan blue exclusion. Cells were plated into 24-well Nunc tissue culture plates at 200,000 viable cells/well in […].
Procedure: Following plating of the cells, the plates are incubated at 37 C for 2-4 hours at which time the treatments are added to the cells. Treatments are added to the wells at 2× the desired final concentration in […] in isotonic medium containing 0.2% BSA. The cells are incubated at 37 C. for 72 h. At the end of the incubation period, the medium is removed from the wells and tested for estradiol concentration by radioimmunoassay.
Experimental Groups: In the 24-well format, the plate was divided into 6 columns of 4 wells/column. One plate per compound was used to test either agonist or antagonist modes. […]
Four different doses of compound were tested in the antagonist mode. In addition, one column was used for a negative control (vehicle alone) and the other remaining column for a positive control (ED50 of FSH alone).
The doses of compound chosen to test were extrapolated from the initial functional screening process. Along with the plates testing compounds, another plate was run in parallel using a dose-response of FSH (0.01-100 ng/mL) as a positive control.
Analysis of Results: Estradiol was expressed as pg/mL. Estradiol secretion in agonist mode, or the ability of the compound to inhibit FSH-induced estradiol secretion in antagonist, was compared to the appropriate negative and positive controls. Data were analyzed statistically by analysis of variance with Huber weighting of log transformed data. Paired differences were determined using the LSD test
Reference Compounds: Test compounds were compared to the effect of purified or recombinant human FSH.

Broadly, the IC50 is the concentration that gives 50% inhibition. Read a low IC50 as higher potency.

Consider `COc1ccc(C(=O)Nc2ccc(CCc3ccc(NC(=O)c4ccc(S(C)(=O)=O)cc4)cc3S(=O)(=O)O)c(S(=O)(=O)O)c2)cc1S(=O)(=O)N1CCOCC1` [Example 43a, 5-[[4-Methoxy-3-(4-morpholinylsulfonyl)benzoyl]amino]-2-[2-[4-[[4-(methylsulfonyl)benzoyl]amino]-2-sulfophenyl]ethyl]benzenesulfonic Acid], for which the IC50 stood at 17 µM. This counts as double-digit micromolar.

The values above are taken from US6355633B1, “Aryl sulfonic acids and derivatives as FSH antagonists” (American Home Products Corporation, priority 1999, dated 2002).
